According to ChEMBL document CHEMBL1133354, “5-Thienyltryptamine derivatives as serotonin 5-HT1B/1D receptor agonists: potential treatments for migraine” (Bioorg Med Chem Lett, 2000):

Legend:
[1] = biological target: 5-hydroxytryptamine receptor 1B (Homo sapiens, UniProt P28222); experiment: Binding affinity for human 5-hydroxytryptamine 1B receptor
[2] = biological target: 5-hydroxytryptamine receptor 1D (Homo sapiens, UniProt P28221); experiment: Binding affinity for human 5-hydroxytryptamine 1D receptor
5-hydroxytryptamine receptor 1D, sequence (P28221 whole entry): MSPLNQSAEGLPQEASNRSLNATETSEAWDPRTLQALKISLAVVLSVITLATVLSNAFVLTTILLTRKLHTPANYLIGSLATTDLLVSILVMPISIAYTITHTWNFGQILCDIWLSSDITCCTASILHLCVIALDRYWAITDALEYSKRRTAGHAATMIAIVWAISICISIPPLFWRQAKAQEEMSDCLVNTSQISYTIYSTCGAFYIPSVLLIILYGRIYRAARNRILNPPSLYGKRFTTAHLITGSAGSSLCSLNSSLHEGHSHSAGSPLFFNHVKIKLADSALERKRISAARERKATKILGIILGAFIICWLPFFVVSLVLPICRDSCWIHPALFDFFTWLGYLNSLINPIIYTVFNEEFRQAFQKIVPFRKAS

5-hydroxytryptamine receptor 1B, sequence (P28222 whole entry): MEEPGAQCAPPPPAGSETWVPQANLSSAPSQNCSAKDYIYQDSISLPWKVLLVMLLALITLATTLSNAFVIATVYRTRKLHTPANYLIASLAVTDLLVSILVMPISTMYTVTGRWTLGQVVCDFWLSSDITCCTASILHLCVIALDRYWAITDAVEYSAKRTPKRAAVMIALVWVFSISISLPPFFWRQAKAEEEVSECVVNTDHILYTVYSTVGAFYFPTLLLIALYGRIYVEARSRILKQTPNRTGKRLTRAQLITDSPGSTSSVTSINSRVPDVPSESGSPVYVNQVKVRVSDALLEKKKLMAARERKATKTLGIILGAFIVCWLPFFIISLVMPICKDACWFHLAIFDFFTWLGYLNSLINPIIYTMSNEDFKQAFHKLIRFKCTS

| SMILES | Ki [1] | Ki [2] |
| --- | --- | --- |
| CN(C)CCc1c[nH]c2ccc(-c3ccsc3)cc12 | 17 nM | 0.5 nM |
| c1csc(-c2ccc3[nH]cc(CCN4CCCC4)c3c2)c1 | 714 nM | 19 nM |
| CC1CCC(C)N1CCc1c[nH]c2ccc(-c3cccs3)cc12 (configuration not stated) | 70 nM | 2.5 nM |
| COC[C@@H]1CCCN1CCc1c[nH]c2ccc(-c3cccs3)cc12 | 9.9 nM | 1.8 nM |
| OC[C@@H]1CCCN1CCc1c[nH]c2ccc(-c3cccs3)cc12 | 113 nM | 8.2 nM |
| NCCc1c[nH]c2ccc(-c3cccs3)cc12 | 32 nM | 1.7 nM |
| CN(C)CCc1c[nH]c2ccc(-c3cccs3)cc12 | 23 nM | 0.7 nM |
| C1=CCN(CCc2c[nH]c3ccc(-c4cccs4)cc23)C1 | 107 nM | 4.5 nM |
| Cc1ccc(-c2ccc3[nH]cc(CCN(C)C)c3c2)s1 | 133 nM | 3.2 nM |
| CN(C)CCc1c[nH]c2ccc(-c3ccc(Cl)s3)cc12 | 303 nM | 7.6 nM |
| Clc1ccc(-c2ccc3[nH]cc(CCN4CCCC4)c3c2)s1 | 476 nM | 31 nM |
